From ChEMBL document CHEMBL5390277, “Development of N-Terminally Modified Variants of the CXCR4-Antagonistic Peptide EPI-X4 for Enhanced Plasma Stability” (J Med Chem, 2023)
Square brackets hold non-standard residues; d marks the D form. Peptide text beside a SMILES is read from it.

Columns and labels:
[1] = target: T1, C-X-C chemokine receptor type 4 (Homo sapiens, UniProt P61073); assay: Antagonist activity at CXCR4 (unknown origin) expressed in human HEK293T cells co-expressing SmBiT-beta-arrestin2 preincubated with compound for 10 mins followed by CXCL12 stimulation and measured for 120 mins by beta-arrestin2 recruitment based NanoBiT assay; type: functional, cell-based
T1 sequence (P61073 whole entry): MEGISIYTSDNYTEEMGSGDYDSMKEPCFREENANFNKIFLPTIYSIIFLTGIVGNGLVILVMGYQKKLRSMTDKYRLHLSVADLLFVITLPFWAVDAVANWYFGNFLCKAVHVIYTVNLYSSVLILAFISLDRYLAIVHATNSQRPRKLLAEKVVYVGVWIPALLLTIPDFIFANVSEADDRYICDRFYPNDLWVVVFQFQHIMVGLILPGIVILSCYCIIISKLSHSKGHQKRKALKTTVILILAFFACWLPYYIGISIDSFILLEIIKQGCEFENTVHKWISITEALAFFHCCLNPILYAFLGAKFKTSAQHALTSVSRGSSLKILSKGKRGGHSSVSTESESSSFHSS

[2] = test system: Human immunodeficiency virus 1; assay: Antiviral activity against HIV-1 NL4-3 infected in human TZM-bl cells assessed as inhibition of viral replication preincubated for 15 mins followed by viral infection and measured after 4320 mins by beta-gal screening assay; type: functional, organism-based; conditions: Human immunodeficiency virus 1, NL4-3, TZM
[3] = target: T1, C-X-C chemokine receptor type 4; assay: Displacement of 12G5 antibody from CXCR4 in human SUP-T1 cells as fold increase in apparent IC50 in presence of human plasma media by flow cytometry based competitive analysis; type: cell-based; conditions: filed as antagonist
[4] = Toxicity in Zebrafish embryo incubated for 24 hrs by microscopic analysis; parameters: species or system Danio rerio; conditions: in vivo
SUP-T1 = assay: Inhibition of cell migration in human SUP-T1 cells assessed as inhibition of CXCL12 mediated cell migration incubated for 4 hrs in presence of chemoattractant, CXCL12 by Transwell based CellTiter-Glo-chemotaxis assay; type: functional
[5] = target: T1, C-X-C chemokine receptor type 4; assay: Displacement of 12G5 antibody from CXCR4 in human SUP-T1 cells assessed as stability of the compound by measuring remaining activity in presence of human plasma media at 20 uM by flow cytometry based competitive analysis relative to control; type: cell-based
[6] = target: T1, C-X-C chemokine receptor type 4; assay: Antagonist activity at CXCR4 in human SUP-T1 cells assessed as inhibition of CXCL12-induced ERK phosphorylation preincubated with 15 mins followed by CXCL12 stimulation and measured after 12 mins by flow cytometry analysis; type: functional, cell-based
[7] = target: T1, C-X-C chemokine receptor type 4; assay: Displacement of 12G5 mAb from CXCR4 in human SUP-T1 cells incubated for 2 hrs by flow cytometry analysis; type: cell-based
[8] = Stability in C57BL/6 mouse plasma assessed as compound remaining at 3.5 mg/kg,iv administration and measured after 30 mins in presence of fluorescent labeled CXCR4 antibody and CXCR4 expressing human SUP-T1 cells by antibody-competition based flow cytometry assay; type: ADME, organism-based; conditions: in vivo, 0.5 h
[9] = target: T1, C-X-C chemokine receptor type 4; assay: Displacement of 12G5 antibody from CXCR4 in human SUP-T1 cells as fold increase in apparent IC50 in presence of human plasma media incubated for 8 hrs by flow cytometry based competitive analysis; type: cell-based; conditions: filed as antagonist
[10] = target: T1, C-X-C chemokine receptor type 4; assay: Displacement of 12G5 antibody from CXCR4 in human SUP-T1 cells in presence of human plasma media incubated for 8 hrs by flow cytometry based competitive analysis; type: cell-based
[11] = target: T1, C-X-C chemokine receptor type 4; assay: Displacement of 12G5 antibody from CXCR4 in human SUP-T1 cells in presence of human plasma media incubated for 2 hrs by flow cytometry based competitive analysis; type: cell-based
[12] = Stability in human plasma assessed as half life measured upto 120 mins by mass spectrometry method; type: ADME, cell-free

| SMILES | IC50 [1] [nM] | IC50 [2] [nM] | fold change (FC) [3] | Activity [4] | inhibition (SUP-T1) | Activity [5] [%] | IC50 [6] [µM] | IC50 [7] [nM] | Stability [8] | fold change (FC) [9] | IC50 [10] [nM] | IC50 [11] [nM] | half-life [12] [min] |
| --- | --- | --- | --- | --- | --- | --- | --- | --- | --- | --- | --- | --- | --- |
| CC[C@@H](C)[C@@H](N)C(=O)N[C@@H](CC(C)C)C(=O)N[C@@H](CCCNC(=N)N)C(=O)N[C@@H](Cc1c[nH]c2ccccc12)C(=O)N[C@@H](CO)C(=O)N[C@@H](CCCNC(=N)N)C(=O)N[C@@H](CCCCN)C(N)=O (H-[dI]LRWSRK-NH2) | 92 | 1990 | 1 | Non-Toxic | Dose-Dependent Effect | 100 | 6.75 | 263 | Stable | 1.1 | – | – | – |
| CC[C@H](C)[C@H](N)C(=O)N[C@@H](CC(C)C)C(=O)N[C@@H](CCCNC(=N)N)C(=O)N[C@@H](Cc1c[nH]c2ccccc12)C(=O)N[C@@H](CO)C(=O)N[C@@H](CCCNC(=N)N)C(=O)N[C@@H](CCCCN)C(=O)N[C@@H](CC(C)C)C(=O)N1CCC[C@H]1C(=O)N[C@@H](CS)C(=O)N[C@H](C(=O)N[C@@H](CO)C(=O)O)C(C)C | – | – | 1 | – | – | 100 | – | – | Unstable | – | 1590 | 476 | – |
| CC[C@H](C)[C@H](N)C(=O)N[C@H](C(=O)N[C@@H](CCCNC(=N)N)C(=O)N[C@@H](Cc1c[nH]c2ccccc12)C(=O)N[C@@H](CO)C(=O)N[C@@H](CCCCN)C(=O)N[C@@H](CCCCN)C(=O)N[C@H](C(=O)N1CCC[C@H]1C(=O)N[C@@H](CS)C(=O)N[C@H](C(=O)N[C@@H](CO)C(=O)O)C(C)C)C(C)C)C(C)C (H-IVRWSKKVPCVS-OH) | – | 562 | – | – | – | – | 8.05 | 345 | – | – | – | – | 5.2 |
